Experimental data taken from PMC9758846, “Dinuclear and mononuclear metal(II) polypyridyl complexes against drug-sensitive and drug-resistant Plasmodium falciparum and their mode of action” (Malaria Journal, 2022).

How the values were obtained:
[1] = test system: B+ blood red blood cells (RBC); experiment: In vitro haemolytic assay; type: cell-based, human; settings: up to 25 µM; 72 h
Protocol: Fresh B+ blood was washed with RPMI1640 medium containing of 30 µg/mL gentamicin (Gibco) and centrifuged at 1000 xg for 10 min three times. The percentage of haemolysis was determined spectroscopically using 5% haematocrit containing test compound at increasing concentration and incubated for 72 h at 37 °C [19, 20]. Untreated blood acted as negative control while blood treated with sterile distilled water acted as positive control (for 100% haemolysis).

[2] = Solution stability by molar conductivity and visible absorptivity; type: physicochemical; settings: 24, 48 and 72 h; room temperature
Protocol: Series of 10 mM stock solutions were prepared by dissolving the compounds in their respective solvents: phen and 4,4′-bipy in 95% ethanol; Cu(NO3)2·3H2O, Zn(NO3)2·6H2O, (1) and (2) in double distilled water; (3) and (4) in DMSO. All the stock solutions were further diluted with double distilled water to obtain 10 mL of 30 µM, 1 mM and 5 mM for their respective studies, viz. 30 µM for ultraviolet spectral studies, 1 mM for conductivity measurement and 5 mM for visible spectral studies. For the water-DMSO solutions of both complexes (3) and (4), the 30 µM, 1 mM and 5 mM solutions have […], 10% DMSO and 50% DMSO respectively. The absorbance at λmax and conductance were of the aqueous solutions were measured at 0, 24, 48 and 72 h. The molar absorptivity and molar conductivity of the metal(II) complex solutions and their precursors were then calculated.

[3] = PNDA assay of •OH radicals from reaction with H2O2; settings: for Concentration of •OH radical: 30 µM compound with excess H2O2
Protocol: A previously reported spectrometric assay using PNDA was used to quantify the amount of reactive oxygen species (ROS), viz. •OH radicals, produced by the reaction of metal(II) complexes with hydrogen peroxide in borate buffer at pH 7.5 [24–26]. The percentage of PNDA bleaching and the concentration of •OH produced were determined.

Pf5202 = experiment: Intracellular ROS level using DCFH-DA; type: cell-based, Plasmodium falciparum
Protocol: (§1) After incubation, packed cells were washed with phosphate buffer saline (PBS) solution. […] The data was expressed as fold change between amount of ROS produced by treated P. falciparum against untreated P. falciparum. Normalization was done with the percentage of parasite viability obtained at each condition. Hydrogen peroxide was used as positive control.

Pf3D7 = experiment: Intracellular ROS level using DCFH-DA; type: cell-based, Plasmodium falciparum
Protocol: as §1

With `O.O.O=[N+]([O-])[O-].O=[N+]([O-])[O-].[Zn+2].c1cnc2c(c1)ccc1cccnc12.c1cnc2c(c1)ccc1cccnc12` [Complex 2, [Zn(phen)2](NO3)2·2H2O] the “Haemolysis on B+ blood (in words)” value [1] was “no haemolysis”, the “Stability of aqueous solution (molar conductivity; for (1) also visible molar absorptivity)” value [2] was “remains practically unchanged” and the “Concentration of •OH radical” value ([3]; 2 h) was 0.01 ± 0.08 µM. The “Concentration of •OH radical” value ([3]; 4 h) was 0.08 ± 0.03 µM, the “Concentration of •OH radical” value ([3]; 24 h) was 0.20 ± 0.16 µM and the “Concentration of •OH radical” value ([3]; 48 h) was 0.21 ± 0.05 µM. For the same compound, the “Concentration of •OH radical” value ([3]; 72 h) was 0.28 ± 0.08 µM, the “Generation of ·OH radicals (in words)” value ([3]; equimolar test compound with excess H2O2) was “did not generate any ·OH radicals” and the “fold change in ROS” value (Pf5202; 24 h, 0.2 µM) was 1.07 ± 0.05 fold. For the same compound, the “fold change in ROS” value (Pf5202; 24 h, 1.0 µM) was 1.10 ± 0.09 fold, the “fold change in ROS” value (Pf5202; 24 h, 5.0 µM) was 1.00 ± 0.02 fold and the “fold change in ROS” value (Pf5202; 24 h, 25.0 µM) was 1.04 ± 0.06 fold. The “fold change in ROS” value (Pf5202; 72 h, 0.2 µM) was 0.00 ± 0.03 fold, the “fold change in ROS” value (Pf5202; 72 h, 1.0 µM) was 0.34 ± 0.04 fold and the “fold change in ROS” value (Pf5202; 72 h, 5.0 µM) was 0.16 ± 0.04 fold. For the same compound, the “fold change in ROS” value (Pf3D7; 24 h, 0.2 µM) was 0.07 ± 0.08 fold, the “fold change in ROS” value (Pf3D7; 24 h, 1.0 µM) was 0.39 ± 0.19 fold and the “fold change in ROS” value (Pf3D7; 24 h, 5.0 µM) was 0.45 ± 0.10 fold. For the same compound, the “fold change in ROS” value (Pf3D7; 24 h, 25.0 µM) was 2.61 ± 0.12 fold, the “fold change in ROS” value (Pf3D7; 48 h, 0.2 µM) was 1.9 ± 0.38 fold and the “fold change in ROS” value (Pf3D7; 48 h, 1.0 µM) was 2.13 ± 0.21 fold. For the same compound, the “fold change in ROS” value (Pf3D7; 48 h, 5.0 µM) was 2.95 ± 0.18 fold, the “fold change in ROS” value (Pf3D7; 48 h, 25.0 µM) was 2.48 ± 0.26 fold and the “fold change in ROS” value (Pf3D7; 72 h, 25.0 µM) was 0.70 ± 0.05 fold.
